Experimental data from PMC10893082, “Development and Optimization of Andrographis paniculata Extract-Loaded Self-Microemulsifying Drug Delivery System Using Experimental Design Model” (Pharmaceutics, 2024).
Converted amounts (≈) assume the structure as drawn.

Experiments:
physchem = assay type: physicochemical
Protocol: To find the solubility of AGP in the optimized SMEDDS (highest amount of AGP that can be loaded into the optimized SMEDDS), an excess amount of A. paniculata extract was added to the 1.5 mL of the optimized SMEDDS and shaken at 37 °C 120 rpm for 72 h in an incubator shaker. Then, the AGPE-loaded optimized SMEDDS was centrifuged at 14,000 rpm for 30 min to separate the extract powder from the AGP-extracted SMEDDS. The supernatant was collected and diluted with methanol before the analysis of AGP content using HPLC. HPLC analysis with UV detection was used to quantify the content of AGP. An Agilent® 1200 (Santa Clara, CA, USA) with an Agilent® ZORBAX Eclipse XDB-C18 (4.6 × 150 mm, 5 µm) column was used. The mobile phase was methanol:water (65:35), and the injection volume was 20 µL. The flow rate was set at 0.8 mL/min, and the detection wavelength was 228 nm. The standard curve of AGP was constructed, ranging from 5 to 200 µg/mL.

SARS-CoV-2 = test system: SARS-CoV-2; design: method as in ref 6, Sa-ngiamsuntorn et al., (2021); details: Sa-ngiamsuntorn et al., (2021); cited from earlier work
[1] = design: method as in ref 53, Kim et al., (2019); details: Kim et al., (2019), cited from earlier work

SMILES	solubility (physchem) [mg/mL]	solubility at 72 h (physchem; 37 °C, thermodynamic from solid) [mg/mL]	anti-SARS-CoV-2 activity, IC50 (SARS-CoV-2)	Time within which dissolution was completed ([1]; SMEDDS formulation) [min]	Drug powder dissolved ([1]; drug powder, after 60 min) [%]
C=C1CC[C@@H]2[C@](C)(CO)[C@H](O)CC[C@@]2(C)[C@@H]1C/C=C1/C(=O)OC[C@H]1O [AGP, andrographolide]	~42 (≈ 120 mM)	~38 (≈ 108 mM)	equivalent to the antiviral agent remdesivir		
CN(Cc1cnc2nc(N)nc(N)c2n1)c1ccc(C(=O)N[C@@H](CCC(=O)O)C(=O)O)cc1 [methotrexate]				≤ 20	53
